Experimental data reported in ChEMBL document CHEMBL6103667, “Novel Cyclic Peptides Inhibiting Tumor Necrosis Factor Receptor 1 Activity” (ACS Med Chem Lett, 2025).
Numbered stars: 1 amine (or outer) side, 2 acyl side, 3 side chain; on linkers, the order of the positions; unused ones are H or OH. Bridge positions count the residues as written; N and C are the ends. Square brackets hold non-standard residues; d marks the D form. Peptide text beside a SMILES is read from it. X1 = COc1cccc2c([C@H](C)[C@](C)(N[*:1])C(=O)[*:2])c[nH]c12; Morpholine(3S-CO,6,6-Me2) = CC1(C)CN[C@H](C(=O)O)CO1; Trp(7-Cl) = N[C@@H](Cc1c[nH]c2c(Cl)cccc12)C(=O)O; Phe(4-COOH) = N[C@@H](Cc1ccc(C(=O)O)cc1)C(=O)O; X2 = O=C([C@H]1CC[C@@H](N[*:1])C1)[*:2]; Pip(4-aza) = O=C(O)[C@@H]1CNCCN1; 4Pal = N[C@@H](Cc1ccncc1)C(=O)O; NMeE = CN[C@@H](CCC(=O)O)C(=O)O; X3 = CC[C@H](C(=O)[*:1])[*:2]; NEtAla = CCN[C@@H](C)C(=O)O; αMeS = C[C@](N)(CO)C(=O)O; Nle = CCCC[C@H](N)C(=O)O; Sar = CNCC(=O)O

How the values were obtained:
[1] = Inhibition of TNFalpha-induced NF-kappaB signal transduction pathway in human THP-1 cells preincubated for 1 hrs followed by TNFalpha addition and measured after 16 to 18 hrs by luminescence based microplate reader; format: cell-based
[2] = biological target: T1, Tumor necrosis factor receptor superfamily member 1A (Homo sapiens, UniProt P19438); experiment: Binding affinity to C-terminal Avi-tagged human TNFRl extracted from Sf21 baculovirus expression system assessed as dissociation constant incubated for 20 hrs in presence of ATP by SPR analysis
T1 sequence (P19438 whole entry): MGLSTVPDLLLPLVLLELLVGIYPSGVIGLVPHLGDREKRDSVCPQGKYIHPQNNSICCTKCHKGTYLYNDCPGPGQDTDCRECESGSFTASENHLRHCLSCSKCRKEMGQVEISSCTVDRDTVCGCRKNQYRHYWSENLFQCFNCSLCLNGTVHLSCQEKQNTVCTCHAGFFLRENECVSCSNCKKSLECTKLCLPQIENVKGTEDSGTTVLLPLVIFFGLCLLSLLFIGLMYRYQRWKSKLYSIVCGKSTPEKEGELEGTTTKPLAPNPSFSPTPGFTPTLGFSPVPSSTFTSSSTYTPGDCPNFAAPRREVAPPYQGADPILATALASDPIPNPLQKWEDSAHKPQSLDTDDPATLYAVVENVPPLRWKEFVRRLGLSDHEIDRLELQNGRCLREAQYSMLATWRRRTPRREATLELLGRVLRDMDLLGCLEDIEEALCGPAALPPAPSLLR

[3] = biological target: T1, Tumor necrosis factor receptor superfamily member 1A; experiment: Displacement of biotinylated peptide from C-terminal 6His-tagged human soluble TNFR1 (1 to 211 residues) extracted from Sf21 baculovirus expression system incubated for 90 mins by LanthaScreen Eu based TR-FRET binding assay
[4] = biological target: T2, Tumor necrosis factor receptor superfamily member 1B (Homo sapiens, UniProt P20333); experiment: Binding affinity to C-terminal Avi-tagged human TNFR2 extracted from Sf21 baculovirus expression system assessed as dissociation constant incubated for 20 hrs in presence of ATP by SPR analysis
T2 sequence (P20333 whole entry): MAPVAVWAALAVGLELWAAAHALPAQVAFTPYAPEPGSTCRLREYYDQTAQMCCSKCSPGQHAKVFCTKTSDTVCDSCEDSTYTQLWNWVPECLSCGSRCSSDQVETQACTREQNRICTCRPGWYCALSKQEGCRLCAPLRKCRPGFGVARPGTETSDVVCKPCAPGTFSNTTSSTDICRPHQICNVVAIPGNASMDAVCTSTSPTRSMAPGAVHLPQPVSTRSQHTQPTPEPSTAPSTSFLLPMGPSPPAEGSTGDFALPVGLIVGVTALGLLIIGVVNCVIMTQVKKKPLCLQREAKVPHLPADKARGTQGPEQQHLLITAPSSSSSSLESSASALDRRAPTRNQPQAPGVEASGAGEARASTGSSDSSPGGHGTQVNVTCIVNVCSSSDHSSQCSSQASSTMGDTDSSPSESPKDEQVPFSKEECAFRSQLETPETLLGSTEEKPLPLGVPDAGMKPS

| Structure (SMILES) | IC50 [1] [nM] | Kd [2] [nM] | IC50 [3] [nM] | Kd [4] [nM] |
| --- | --- | --- | --- | --- |
| CCCC[C@@H]1NC(=O)[C@H]2CC[C@H](C2)NC(=O)[C@](C)([C@@H](C)c2c[nH]c3c(OC)cccc23)NC(=O)CN(C)C(=O)[C@H](Cc2ccc(O)cc2)NC(=O)[C@H](Cc2ccc(C(=O)O)cc2)NC(=O)[C@](C)(CO)NC(=O)[C@H](Cc2c[nH]c3c(Cl)cccc23)NC(=O)[C@H](Cc2ccncc2)NC(=O)[C@H](CC(=O)O)NC(=O)[C@H](CCC(=O)O)N(C)C(=O)[C@H](Cc2c[nH]c3ccccc23)NC(=O)[C@@H]2CNCCN2C(=O)[C@H](Cc2ccncc2)NC1=O (cyclo([4Pal][Trp(7-Cl)][αMeS][Phe(4-COOH)]Y[Sar][X1][X2][Nle][4Pal][Pip(4-aza)]W[NMeE]D)) | 1.2 | 0.1 | 0.2 | > 1000 |
| CCCC[C@@H]1NC(=O)CSC[C@@H](C(N)=O)NC(=O)[C@](C)([C@@H](C)c2c[nH]c3c(OC)cccc23)NC(=O)CN(C)C(=O)[C@H](Cc2ccc(O)cc2)NC(=O)[C@H](Cc2ccc(C(=O)O)cc2)NC(=O)[C@](C)(CO)NC(=O)[C@H](Cc2c[nH]c3c(Cl)cccc23)NC(=O)[C@H](Cc2ccncc2)NC(=O)[C@H](CC(N)=O)NC(=O)[C@H](C)N(CC)C(=O)[C@H](Cc2c[nH]c3ccccc23)NC(=O)[C@@H]2COC(C)(C)CN2C(=O)[C@H](Cc2ccncc2)NC1=O ({CH2CO}-[Nle][4Pal][Morpholine(3S-CO,6,6-Me2)]W[NEtAla]N[4Pal][Trp(7-Cl)][αMeS][Phe(4-COOH)]Y[Sar][X1]C-NH2; thioether N-14) | 0.8 | 0.14 | 0.6 | > 1000 |
| CCCC[C@@H]1NC(=O)[C@@H](CC)SC[C@@H](C(N)=O)NC(=O)[C@](C)([C@@H](C)c2c[nH]c3c(OC)cccc23)NC(=O)CN(C)C(=O)[C@H](Cc2ccc(O)cc2)NC(=O)[C@H](Cc2ccc(C(=O)O)cc2)NC(=O)[C@](C)(CO)NC(=O)[C@H](Cc2c[nH]c3c(Cl)cccc23)NC(=O)[C@H](Cc2ccncc2)NC(=O)[C@H](CC(N)=O)NC(=O)[C@H](CCC(=O)O)N(C)C(=O)[C@H](Cc2c[nH]c3ccccc23)NC(=O)[C@@H]2COC(C)(C)CN2C(=O)[C@H](Cc2ccncc2)NC1=O ([Nle][4Pal][Morpholine(3S-CO,6,6-Me2)]W[NMeE]N[4Pal][Trp(7-Cl)][αMeS][Phe(4-COOH)]Y[Sar][X1]C-NH2; linker N-14 via X3) | 2.2 | 0.2 | 0.55 | > 1000 |
